Series [1] has as its target T1, Homoserine dehydrogenase (StHSD) (Sulfurisphaera tokodaii, UniProt F9VNG5).
T1 construct: gene hom
In words: product inhibition kinetics of homoserine oxidation (double reciprocal plots). Type of series: biochemical.

Series [2] addresses T1, Homoserine dehydrogenase (StHSD). In words: crystal structure with cysteine at […] Å; steady-state kinetics (apparent Km). The format is biochemical. Particulars: cited from earlier work.
The target is the same in series [3]. In words: crystal structure with NAD at […] Å; Ki from Dixon plots of homoserine oxidation by purified enzyme; difference UV spectrum. Type of series: biochemical.
For series [4] the target is unchanged. In words: initial velocity and product inhibition kinetics of NAD-dependent oxidation by purified enzyme. Type of series: biochemical.
Substrate in series [5]: NC(=O)c1ccc[n+]([C@@H]2O[C@H](COP(=O)([O-])OP(=O)(O)OC[C@H]3O[C@@H](n4cnc5c(N)ncnc54)[C@H](OP(=O)(O)O)[C@@H]3O)[C@@H](O)[C@H]2O)c1
In words: steady-state kinetics of purified enzyme (apparent Km). Type of series: biochemical, Sulfurisphaera tokodaii. Particulars: Phe49 could exclude the C2′ phosphate group of NADP; varied: cofactor.

The term Km denotes the concentration of substrate that gives half-maximal velocity. For orientation: Ki means the dissociation constant of the complex between target and ligand, obtained from inhibition or displacement. A high value points to a looser hold on the target.

For the molecule `NC(=O)C1=CN([C@@H]2O[C@H](COP(=O)(O)OP(=O)(O)OC[C@H]3O[C@@H](n4cnc5c(N)ncnc54)[C@H](O)[C@@H]3O)[C@@H](O)[C@H]2O)C=CC1` [NADH], the “product inhibition kinetics of homoserine oxidation (double reciprocal plots)” value in series [1] was “which suggests that NADH acts as a competitive inhibitor of NAD”. As to `NC(=O)c1ccc[n+]([C@@H]2O[C@H](COP(=O)([O-])OP(=O)(O)OC[C@H]3O[C@@H](n4cnc5c(N)ncnc54)[C@H](O)[C@@H]3O)[C@@H](O)[C@H]2O)c1` [NAD], the Km in series [2] is 330 µM. `N[C@@H](CS)C(=O)O` [cysteine] gave a Ki in series [3] of 11 µM. As to `N[C@@H](CCO)C(=O)O` [homoserine], the “initial velocity and product inhibition kinetics of NAD-dependent oxidation by p” value in series [4] was “NAD binds to the free form of the enzyme, after which homoserine binds to the enzyme-NAD complex”.

B1: Homoserine dehydrogenase (StHSD) (Sulfurisphaera tokodaii str. 7) (protein)
chain: MKLLLFGYGNVGKAFRKLLHEKRSPELNDVIIGGIVTRRGIMLQDKEDFTPDLEGDVFKAFEKIKPDIIVDVSSANYNNGEPSLSLYKEAIKDGVNIITTNKAPLALAFNEIFSLARSKGVKIGFQGTVMSGTPSINLYRVLPGSRVIKIRGILNGTTNFILTLMNKGVSFEEALKEAQRRGYAEEDPTLDINGFDAAAKITILANFMIGNSVTIKDVKFEGINRDLPKNEKIKLIAYADEKEVWVKPLPISQDDPLYNVDGVENALEITTDIQSILIRGPGAGPVNAAYGALSDLILLKRDCL
For the molecule B1, in series [5], the Michaelis constant (Km) is 1200 µM.
